From article PMC7559834, “Functional and Pharmacological Comparison of Human, Mouse, and Rat Organic Cation Transporter 1 toward Drug and Pesticide Interaction” (International Journal of Molecular Sciences, 2020) come the findings set out here.

Data set [1] addresses T1, human OCT1 (hOCT1) (Homo sapiens, UniProt O15245).
T1 sequence (O15245 1-554): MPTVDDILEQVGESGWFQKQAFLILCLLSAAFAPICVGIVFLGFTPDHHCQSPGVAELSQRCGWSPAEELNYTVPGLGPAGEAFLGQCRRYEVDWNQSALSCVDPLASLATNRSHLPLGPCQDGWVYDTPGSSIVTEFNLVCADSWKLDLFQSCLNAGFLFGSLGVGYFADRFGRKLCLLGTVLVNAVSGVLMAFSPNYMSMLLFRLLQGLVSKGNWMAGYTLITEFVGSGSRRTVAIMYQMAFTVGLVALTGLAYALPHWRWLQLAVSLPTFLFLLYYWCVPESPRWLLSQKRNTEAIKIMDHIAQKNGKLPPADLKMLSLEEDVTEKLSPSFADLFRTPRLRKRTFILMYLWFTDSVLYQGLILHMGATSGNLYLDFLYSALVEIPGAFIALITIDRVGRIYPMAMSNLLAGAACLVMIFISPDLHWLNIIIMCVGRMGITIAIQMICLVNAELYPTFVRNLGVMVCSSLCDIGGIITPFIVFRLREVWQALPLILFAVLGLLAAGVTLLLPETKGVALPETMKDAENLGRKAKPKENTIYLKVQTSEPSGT
Kind of data set: cell-based. Details: gene SLC22A1. To be noted: HEK293, read-out: Inhibitory Effects (%) / hOCT1 / 10 μM.

A short description of data set [2]: inhibition of 3H-MPP uptake in transfected HEK293 cells, % at […]. In kind it is cell-based, Mus musculus. The note with it: read-out: Inhibitory Effects (%) / hOCT1 / 100 μM.
Data set [3] deals with T2, hMATE1 (Homo sapiens, UniProt Q96FL8).
T2 construct: gene SLC47A1; NM_018242.2, stably transfected HEK293 cells
T2 sequence (Q96FL8 1-570): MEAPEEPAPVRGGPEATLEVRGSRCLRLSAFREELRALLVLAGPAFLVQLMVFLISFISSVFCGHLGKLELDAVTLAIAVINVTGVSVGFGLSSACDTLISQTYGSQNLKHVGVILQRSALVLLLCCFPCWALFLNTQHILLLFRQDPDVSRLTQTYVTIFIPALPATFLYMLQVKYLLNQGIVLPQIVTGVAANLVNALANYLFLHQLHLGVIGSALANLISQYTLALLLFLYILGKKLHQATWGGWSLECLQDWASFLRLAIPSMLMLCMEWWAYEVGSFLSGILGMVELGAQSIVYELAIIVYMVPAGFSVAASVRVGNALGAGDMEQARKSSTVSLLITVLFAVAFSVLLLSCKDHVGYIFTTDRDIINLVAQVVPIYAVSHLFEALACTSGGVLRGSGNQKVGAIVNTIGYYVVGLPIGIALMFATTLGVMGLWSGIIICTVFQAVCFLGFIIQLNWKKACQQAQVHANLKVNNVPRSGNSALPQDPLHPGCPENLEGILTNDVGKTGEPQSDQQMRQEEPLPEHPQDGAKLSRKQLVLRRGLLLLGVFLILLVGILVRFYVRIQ
Kind of data set: inhibition of […]-metformin uptake in transfected HEK293 cells, % at […]. In kind it is cell-based. The note with it: read-out: Inhibitory Effects (%) / hMATE1 / 10 μM.

In data set [4] the target is T3, rat Oct1 (rOct1) (Rattus norvegicus, UniProt Q63089).
T3 construct: gene Slc22a1; NM_012697.1, stably transfected HEK293 cells
T3 sequence (Q63089 1-556): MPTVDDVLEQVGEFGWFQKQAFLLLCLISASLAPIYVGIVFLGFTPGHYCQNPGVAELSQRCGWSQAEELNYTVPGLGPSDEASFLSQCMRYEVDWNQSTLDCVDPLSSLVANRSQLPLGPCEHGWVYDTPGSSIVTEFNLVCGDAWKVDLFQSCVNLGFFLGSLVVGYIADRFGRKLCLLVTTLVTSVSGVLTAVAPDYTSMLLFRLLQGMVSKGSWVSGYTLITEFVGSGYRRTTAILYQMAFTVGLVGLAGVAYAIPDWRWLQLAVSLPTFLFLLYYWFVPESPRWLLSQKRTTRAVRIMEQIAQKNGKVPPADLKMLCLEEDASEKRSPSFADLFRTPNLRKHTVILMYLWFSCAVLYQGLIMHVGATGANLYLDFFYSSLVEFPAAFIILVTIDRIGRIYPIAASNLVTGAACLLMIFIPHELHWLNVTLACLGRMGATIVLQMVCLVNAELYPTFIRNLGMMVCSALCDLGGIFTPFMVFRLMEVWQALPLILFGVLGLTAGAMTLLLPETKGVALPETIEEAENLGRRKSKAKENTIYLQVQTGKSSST
Description: inhibition of 3H-MPP uptake in transfected HEK293 cells. In kind it is cell-based.

Data set [5] deals with T4, mouse Oct1 (mOct1) (Mus musculus, UniProt O08966).
T4 construct: gene Slc22a1; NM_009202.5, stably transfected HEK293 cells
T4 sequence (O08966 1-556): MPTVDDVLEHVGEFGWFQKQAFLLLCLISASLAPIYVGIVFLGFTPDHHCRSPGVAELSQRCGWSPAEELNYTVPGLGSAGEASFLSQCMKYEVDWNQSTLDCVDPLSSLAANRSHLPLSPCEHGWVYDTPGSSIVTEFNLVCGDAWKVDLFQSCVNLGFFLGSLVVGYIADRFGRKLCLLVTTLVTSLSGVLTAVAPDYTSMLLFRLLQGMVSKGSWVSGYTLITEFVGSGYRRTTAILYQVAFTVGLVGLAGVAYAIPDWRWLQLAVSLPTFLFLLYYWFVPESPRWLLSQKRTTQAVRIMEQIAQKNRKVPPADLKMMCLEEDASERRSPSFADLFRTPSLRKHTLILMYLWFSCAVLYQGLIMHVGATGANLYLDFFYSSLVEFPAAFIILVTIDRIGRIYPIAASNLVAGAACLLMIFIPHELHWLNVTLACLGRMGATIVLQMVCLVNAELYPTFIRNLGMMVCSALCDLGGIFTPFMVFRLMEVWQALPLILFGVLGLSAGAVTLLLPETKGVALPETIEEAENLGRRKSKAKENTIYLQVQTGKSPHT
Described as above. In kind it is cell-based.

Data set [6] concerns the target T1, human OCT1 (hOCT1). The description is as above. In kind it is cell-based. Further details: gene SLC22A1; NM_003057.2, OCT1*1B allele, stably transfected HEK293 cells.
Substrate in data set [7]: C[n+]1ccc(-c2ccccc2)cc1
Description: concentration-dependent 3H-MPP uptake, Km. In kind it is cell-based, Homo sapiens.

Substrate in data set [8]: C[n+]1ccc(-c2ccccc2)cc1
Description: concentration-dependent 3H-MPP uptake, Km. In kind it is cell-based, Mus musculus.

Substrate in data set [9]: C[n+]1ccc(-c2ccccc2)cc1
Kind of data set: concentration-dependent 3H-MPP uptake, Km. In kind it is cell-based, Rattus norvegicus.

Like-named read-outs stand apart in the source and are kept apart here.

On to `Clc1cccc(Cl)c1N=C1NCCN1` [Clonidine], for which, in data set [1], the inhibition at 10 µM is 73%. Regarding `C=CCOC(Cn1ccnc1)c1ccc(Cl)cc1Cl` (stereo not shown) [Imazalil], the inhibition at 10 µM in data set [2] stood at 84%.

Regarding `CC(=O)N1CCN(c2ccc(OCC3COC(Cn4ccnc4)(c4ccc(Cl)cc4Cl)O3)cc2)CC1` (stereo not shown) [Ketoconazol], in [3], the inhibition at 10 µM amounted to 87%.

Take `CCN1/C(=C/c2ccc3ccccc3[n+]2CC)C=Cc2ccccc21` [decynium22]: the half-inhibitory concentration (IC50) in data set [4] was 10.5 ± 0.4 µM; in [5], 5.3 ± 0.4 µM; in data set [6], 12.1 ± 0.8 µM. Also, the inhibition at 10 µM in data set [3] came to 76%.

B1: human OCT1 (hOCT1) (Homo sapiens) (protein)
chain: MPTVDDILEQVGESGWFQKQAFLILCLLSAAFAPICVGIVFLGFTPDHHCQSPGVAELSQRCGWSPAEELNYTVPGLGPAGEAFLGQCRRYEVDWNQSALSCVDPLASLATNRSHLPLGPCQDGWVYDTPGSSIVTEFNLVCADSWKLDLFQSCLNAGFLFGSLGVGYFADRFGRKLCLLGTVLVNAVSGVLMAFSPNYMSMLLFRLLQGLVSKGNWMAGYTLITEFVGSGSRRTVAIMYQMAFTVGLVALTGLAYALPHWRWLQLAVSLPTFLFLLYYWCVPESPRWLLSQKRNTEAIKIMDHIAQKNGKLPPADLKMLSLEEDVTEKLSPSFADLFRTPRLRKRTFILMYLWFTDSVLYQGLILHMGATSGNLYLDFLYSALVEIPGAFIALITIDRVGRIYPMAMSNLLAGAACLVMIFISPDLHWLNIIIMCVGRMGITIAIQMICLVNAELYPTFVRNLGVMVCSSLCDIGGIITPFIVFRLREVWQALPLILFAVLGLLAAGVTLLLPETKGVALPETMKDAENLGRKAKPKENTIYLKVQTSEPSGT
notes: NM_003057.2, OCT1*1B allele, stably transfected HEK293 cells
As to B1, the Michaelis constant (Km) in [7] amounted to 73 ± 7 µM.

B2: mouse Oct1 (mOct1) (Mus musculus) (protein)
chain: MPTVDDVLEHVGEFGWFQKQAFLLLCLISASLAPIYVGIVFLGFTPDHHCRSPGVAELSQRCGWSPAEELNYTVPGLGSAGEASFLSQCMKYEVDWNQSTLDCVDPLSSLAANRSHLPLSPCEHGWVYDTPGSSIVTEFNLVCGDAWKVDLFQSCVNLGFFLGSLVVGYIADRFGRKLCLLVTTLVTSLSGVLTAVAPDYTSMLLFRLLQGMVSKGSWVSGYTLITEFVGSGYRRTTAILYQVAFTVGLVGLAGVAYAIPDWRWLQLAVSLPTFLFLLYYWFVPESPRWLLSQKRTTQAVRIMEQIAQKNRKVPPADLKMMCLEEDASERRSPSFADLFRTPSLRKHTLILMYLWFSCAVLYQGLIMHVGATGANLYLDFFYSSLVEFPAAFIILVTIDRIGRIYPIAASNLVAGAACLLMIFIPHELHWLNVTLACLGRMGATIVLQMVCLVNAELYPTFIRNLGMMVCSALCDLGGIFTPFMVFRLMEVWQALPLILFGVLGLSAGAVTLLLPETKGVALPETIEEAENLGRRKSKAKENTIYLQVQTGKSPHT
notes: NM_009202.5, stably transfected HEK293 cells
As to B2, in data set [8], the Km is recorded as 36 ± 13 µM.

B3: rat Oct1 (rOct1) (Rattus norvegicus) (protein)
chain: MPTVDDVLEQVGEFGWFQKQAFLLLCLISASLAPIYVGIVFLGFTPGHYCQNPGVAELSQRCGWSQAEELNYTVPGLGPSDEASFLSQCMRYEVDWNQSTLDCVDPLSSLVANRSQLPLGPCEHGWVYDTPGSSIVTEFNLVCGDAWKVDLFQSCVNLGFFLGSLVVGYIADRFGRKLCLLVTTLVTSVSGVLTAVAPDYTSMLLFRLLQGMVSKGSWVSGYTLITEFVGSGYRRTTAILYQMAFTVGLVGLAGVAYAIPDWRWLQLAVSLPTFLFLLYYWFVPESPRWLLSQKRTTRAVRIMEQIAQKNGKVPPADLKMLCLEEDASEKRSPSFADLFRTPNLRKHTVILMYLWFSCAVLYQGLIMHVGATGANLYLDFFYSSLVEFPAAFIILVTIDRIGRIYPIAASNLVTGAACLLMIFIPHELHWLNVTLACLGRMGATIVLQMVCLVNAELYPTFIRNLGMMVCSALCDLGGIFTPFMVFRLMEVWQALPLILFGVLGLTAGAMTLLLPETKGVALPETIEEAENLGRRKSKAKENTIYLQVQTGKSSST
notes: NM_012697.1, stably transfected HEK293 cells
As to B3, in [9], the Km turned out to be 57 ± 5 µM.

By IC50 is commonly meant the midpoint of a concentration-inhibition curve. A word on the Km: it is the substrate concentration at which the rate is half of its maximum.
